# Source: ChEMBL document CHEMBL6109137, “Design, Synthesis, Evaluation, and SAR of 5-Phenylisoindoline Derivatives, a Potent Class of Small-Molecule Inhibitors Targeting the Programmed Cell Death-1/Programmed Cell Death-Ligand 1 (PD-1/PD-L1) Interaction” (J Med Chem, 2025)
# Calls of active or inactive are those of the source. The rule behind the calls is not given here.
# What was measured:
# [1] = Toxicity in C57BL/6J mouse implanted with mouse MC38 cells assessed as animal mortality at 5 to 20 mg/kg, ip qd for 13 days; assay type: organism-based; conditions: in vivo, 312 h, dose 5-20 mg/kg, time 13 day
# [2] = Binding affinity to human PD-L1 assessed as dissociation constant by SPR analysis
# [3] = target: Programmed cell death protein 1/Programmed cell death 1 ligand 1 (Homo sapiens) (UniProt Q15116+Q9NZQ7); assay: Inhibition of PD-1/PD-L1 (unknown origin) interaction in human PBMC cells assessed as increase in IFN-gamma level at 100 nM pretreated with anti-CD3/CD28 and PD-L1 followed by compound addition measured after 72 hrs by ELISA; assay type: cell-based
# PBMC = assay: Inhibition of apoptosis in human PBMC cells assessed as reduction in PD-L1-induced proportion of terminal phase apoptotic cells by flow cytometry; assay type: functional, cell-based
# [4] = Cytotoxicity against human BEAS-2B cells measured after 48 hrs by MTT assay; assay type: toxicity, cell-based
# [5] = Cytotoxicity against HEK293T cells measured after 48 hrs by MTT assay; assay type: toxicity, cell-based, HEK-293T; conditions: human
# [6] = Cytotoxicity against mouse MC38 cells measured after 48 hrs by MTT assay; assay type: toxicity, cell-based, MC-38
# [7] = Stability in human plasma at 1 mM measured up to 7 hrs by HPLC analysis; assay type: ADME, cell-free; conditions: 1000 µM
# MC-38 [8] = assay: Inhibition of PD-L1-induced cell migration in mouse MC38 cells at 5 uM measured up to 24 hrs by scratch assay; assay type: functional, cell-based
# [9] = Half life in Sprague-Dawley rat at 1 mg/kg, iv measured for 24 hrs by LC-MS/MS analysis; assay type: ADME, organism-based; conditions: in vivo
# [10] = AUC (0 to 24 hrs) in Sprague-Dawley rat at 1 mg/kg, iv measured for 24 hrs by LC-MS/MS analysis; assay type: ADME, organism-based; conditions: in vivo
# [11] = Clearance in Sprague-Dawley rat at 1 mg/kg, iv measured for 24 hrs by LC-MS/MS analysis; assay type: ADME, organism-based; conditions: in vivo
# [12] = AUC (0 to infinity) in Sprague-Dawley rat at 10 mg/kg, ip measured for 24 hrs by LC-MS/MS analysis; assay type: ADME, organism-based; conditions: in vivo
# [13] = Cmax in Sprague-Dawley rat at 20 mg/kg, po measured for 24 hrs by LC-MS/MS analysis; assay type: ADME, organism-based; conditions: in vivo
# [14] = Clearance in Sprague-Dawley rat at 20 mg/kg, po measured for 24 hrs by LC-MS/MS analysis; assay type: ADME, organism-based; conditions: in vivo
# [15] = Oral bioavailability in Sprague-Dawley rat at 20 mg/kg measured for 24 hrs by LC-MS/MS analysis; assay type: ADME, organism-based; conditions: in vivo
# MC-38 [16] = assay: Antitumor activity against mouse MC38 cells implanted in C57BL/6J mouse at 5 to 20 mg/kg, ip qd; assay type: functional, organism-based; conditions: dose 5-20 mg/kg, time 13.0 day
# [17] = Toxicity in C57BL/6J mouse implanted with mouse MC38 cells assessed as change in liver index at 5 to 20 mg/kg, ip qd for 13 days; assay type: organism-based; conditions: in vivo, 312 h, dose 5-20 mg/kg, time 13 day
# [18] = Toxicity in C57BL/6J mouse implanted with mouse MC38 cells assessed as change in spleen index at 5 to 20 mg/kg, ip qd for 13 days; assay type: organism-based; conditions: in vivo, 312 h, dose 5-20 mg/kg, time 13 day
# [19] = Toxicity in C57BL/6J mouse implanted with mouse MC38 cells assessed as injury in liver at 5 to 20 mg/kg, ip qd for 13 days by H and E staining based analysis; assay type: organism-based; conditions: in vivo, 312 h, dose 5-20 mg/kg, time 13 day
# [20] = Toxicity in C57BL/6J mouse implanted with mouse MC38 cells assessed as injury in spleen at 5 to 20 mg/kg, ip qd for 13 days by H and E staining based analysis; assay type: organism-based; conditions: in vivo, 312 h, dose 5-20 mg/kg, time 13 day
# [21] = Toxicity in C57BL/6J mouse implanted with mouse MC38 cells assessed as change in serum urea level at 5 to 20 mg/kg, ip qd for 13 days; assay type: organism-based; conditions: in vivo, 312 h, dose 5-20 mg/kg, time 13 day
# MC-38 [22] = assay: Antitumor activity against mouse MC38 cells implanted in C57BL/6J mouse assessed as increase in ratio of CD8+/CD4+ T cells at 20 mg/kg, ip qd for 13 days by flow cytometry; assay type: functional, organism-based; conditions: time 13.0 day
# Mus musculus [23] = assay: Restoration of immune function in C57BL/6J mouse implanted with mouse MC38 cells assessed as increase in serum TNF-alpha level administered intraperitoneally once daily for 13 days by ELISA; assay type: functional, organism-based; conditions: dose 5-20 mg/kg, route ip, time 13.0 day
# Mus musculus [24] = assay: Restoration of immune function in C57BL/6J mouse implanted with mouse MC38 cells assessed as increase in serum IFN-gamma level administered intraperitoneally once daily for 13 days by ELISA; assay type: functional, organism-based; conditions: dose 5-20 mg/kg, route ip, time 13.0 day
# MC-38 [25] = assay: Antitumor activity against mouse MC38 cells implanted in C57BL/6J mouse at 160 mg/kg, IG qd for 7 days relative to control; assay type: functional; conditions: MC-38, po, 168 h, time 7 day, read-out: TGI
# MC-38 [26] = assay: Antitumor activity against mouse MC38 cells implanted in C57BL/6J mouse assessed as tumor growth inhibition administered intragastrically once daily for 7 days; assay type: functional, cell-based; conditions: dose 40-160 mg/kg, route ig, time 7.0 day
# [27] = Toxicity in C57BL/6J mouse implanted with mouse MC38 cells assessed as change in excised body weight at 40 to 160 mg/kg, IG qd for 7 days; assay type: organism-based; conditions: in vivo, po, 168 h, dose 40-160 mg/kg, time 7 day
# [28] = Toxicity in C57BL/6J mouse implanted with mouse MC38 cells assessed as liver weight ratio at 40 to 160 mg/kg, IG qd for 7 days; assay type: organism-based; conditions: in vivo, po, 168 h, dose 40-160 mg/kg, time 7 day
# [29] = Toxicity in C57BL/6J mouse implanted with mouse MC38 cells assessed as spleen weight ratio at 40 to 160 mg/kg, IG qd for 7 days; assay type: organism-based; conditions: in vivo, po, 168 h, dose 40-160 mg/kg, time 7 day
# [30] = Toxicity in C57BL/6J mouse implanted with mouse MC38 cells assessed as kidney weight ratio at 40 to 160 mg/kg, IG qd for 7 days; assay type: organism-based; conditions: in vivo, po, 168 h, dose 40-160 mg/kg, time 7 day
# [31] = Toxicity in C57BL/6J mouse implanted with mouse MC38 cells assessed as change in AST level at 40 to 160 mg/kg, IG qd for 7 days; assay type: organism-based; conditions: in vivo, po, 168 h, dose 40-160 mg/kg, time 7 day
# [32] = Toxicity in C57BL/6J mouse implanted with mouse MC38 cells assessed as change in ureas level at 40 to 160 mg/kg, IG qd for 7 days; assay type: organism-based; conditions: in vivo, po, 168 h, dose 40-160 mg/kg, time 7 day
# [33] = Toxicity in C57BL/6J mouse implanted with mouse MC38 cells assessed as change in CREA-SOX level at 40 to 160 mg/kg, IG qd for 7 days; assay type: organism-based; conditions: in vivo, po, 168 h, dose 40-160 mg/kg, time 7 day
# [34] = Toxicity in C57BL/6J mouse implanted with mouse MC38 cells assessed as change in neutrophils count at 40 to 160 mg/kg, IG qd for 7 days; assay type: organism-based; conditions: in vivo, po, 168 h, dose 40-160 mg/kg, time 7 day
# [35] = Toxicity in C57BL/6J mouse implanted with mouse MC38 cells assessed as change in MPV count at 40 to 160 mg/kg, IG qd for 7 days; assay type: organism-based; conditions: in vivo, po, 168 h, dose 40-160 mg/kg, time 7 day
# [36] = Toxicity in C57BL/6J mouse implanted with mouse MC38 cells assessed as change in MCH count at 40 to 160 mg/kg, IG qd for 7 days; assay type: organism-based; conditions: in vivo, po, 168 h, dose 40-160 mg/kg, time 7 day
# [37] = Toxicity in C57BL/6J mouse implanted with mouse MC38 cells assessed as change in MCHC count at 40 to 160 mg/kg, IG qd for 7 days; assay type: organism-based; conditions: in vivo, po, 168 h, dose 40-160 mg/kg, time 7 day
structure (smiles),measurement,setting,value
C[C@H](N)C(=O)N1Cc2ccc(-c3cccc(-c4ccc5c(c4)OCCO5)c3Cl)cc2C1.Cl,Activity,[1],Non-toxic
same,Kd,[2],0.23 µM
same,inhibition,[3],Active
same,inhibition,PBMC,Active
same,IC50 at 48 h,[4],> 10 µM
same,IC50 at 48 h,[5],> 10 µM
same,IC50 at 48 h,[6],12 µM
same,Stability,[7],Stable
same,inhibition,MC-38 [8],Active
same,half-life,[9],1.61 h
same,AUC(0-t) at 24 h,[10],180 ng·h/mL
same,clearance,[11],87.7 mL/min/kg
same,AUC(0-inf),[12],1620 ng·h/mL
same,Cmax,[13],151 ng/mL
same,CL/F,[14],401 mL/min/kg
same,bioavailability,[15],21.4%
same,Activity,MC-38 [16],Time-dependent-effect
same,Activity,[17],Non-toxic
same,Activity,[18],Non-toxic
same,Activity,[19],Non-toxic
same,Activity,[20],Non-toxic
same,Activity,[21],Non-toxic
same,Activity,MC-38 [22],Active
same,Activity,Mus musculus [23],Dose-dependent-effect
same,Activity,Mus musculus [24],Dose-dependent-effect
same,inhibition in vivo at 160 mg/kg,MC-38 [25],64.4%
same,inhibition,MC-38 [26],Dose-dependent-effect
same,Activity,[27],Non-toxic
same,Activity,[28],Non-toxic
same,Activity,[29],Non-toxic
same,Activity,[30],Non-toxic
same,Activity,[31],Non-toxic
same,Activity,[32],Non-toxic
same,Activity,[33],Non-toxic
same,Activity,[34],Non-toxic
same,Activity,[35],Non-toxic
same,Activity,[36],Non-toxic
same,Activity,[37],Non-toxic
